# Laboratory results from patent US12564191B2, “Pesticidal compounds” (priority 2020, dated 2026).
# How the values were obtained:
# Assay type in all cases: in vivo
# [1] = system: Southern Armyworm (Spodoptera eridania), 2nd Instar Larvae; experiment: Southern armyworm 2nd instar larvae on sprayed lima bean plants; settings: 96 h, 4 days after treatment, read-out: mortality in comparison with untreated controls
# Description: B.4. Southern Armyworm (Spodoptera eridania), 2nd Instar Larvae
# (§1) The active compounds were formulated in cyclohexanone as a 10,000 ppm solution supplied in tubes. The tubes were inserted into an automated electrostatic sprayer equipped with an atomizing nozzle and they served as stock solutions for which lower dilutions were made in 50% acetone:50% water (v/v). A nonionic surfactant (Kinetic®) was included in the solution at a volume of 0.01% (v/v).
# Lima bean plants (variety Sieva) were grown 2 plants to a pot and selected for treatment at the 1st true leaf stage. Test solutions were sprayed onto the foliage by an automated electrostatic plant sprayer equipped with an atomizing spray nozzle. The plants were dried in the sprayer fume hood and then removed from the sprayer. Each pot was placed into perforated plastic bags with a zip closure. About 10 to 11 armyworm larvae were placed into the bag and the bags zipped closed. Test plants were maintained in a growth room at about 25° C. and about 20-40% relative humidity for 4 days, avoiding direct exposure to fluorescent light (24 hour photoperiod) to prevent trapping of heat inside the bags. Mortality and reduced feeding were assessed 4 days after treatment, compared to untreated control plants.
# [2] = system: Tobacco budworm (Heliothis virescens); experiment: Tobacco budworm (Heliothis virescens) microtiter diet test, egg and larval mortality; settings: 120 h, sprayed onto insect diet, assessed after 5 days, read-out: egg and larval mortality in comparison with untreated controls
# Description: B.5. Tobacco Budworm (Heliothis virescens)
# For evaluating control of tobacco budworm (Heliothis virescens) the test unit consisted of 96-well-microtiter plates containing an insect diet and 15-25 H. virescens eggs.
# The compounds were formulated using a solution containing 75% v/v water and 25% v/v DMSO. Different concentrations of formulated compounds were sprayed onto the insect diet at 10 μl, using a custom built micro atomizer, at two replications.
# After application, microtiter plates were incubated at about 28±1° C. and about 80±5% relative humidity for 5 days. Egg and larval mortality was then visually assessed.
# [3] = system: Western flower thrips (Frankliniella occidentalis); experiment: Western flower thrips (Frankliniella occidentalis) cotton leaf disc test; settings: foliar, 48 h, treated cotton leaf discs, 2 DAT, read-out: mortality in comparison with untreated controls
# Description: B.9. Western Flower Thrips (Frankliniella occidentalis)
# The active compounds were formulated by a Tecan liquid handler in 100% cyclohexanone as a 10,000 ppm solution supplied in tubes. The 10,000 ppm solution was serially diluted in 100% cyclohexanone to make interim solutions. These served as stock solutions for which final dilutions were made by the Tecan in 50% acetone:50% water (v/v) into 10 or 20 ml glass vials. A nonionic surfactant (Kinetic®) was included in the solution at a volume of 0.01% (v/v). The vials were then inserted into an automated electrostatic sprayer equipped with an atomizing nozzle for application to plants/insects.
# Small (˜2″ in height) cotton plants are sprayed with test compounds at concentrations ranging from 300 to 0.01 ppm in acetone/water through the automated VPS. After drying, cotton leaves are removed and circular leaf discs (˜1 cm diameter) are punched from the treated surface and transferred to clean 20 mL scintillation vials. Ten Western flower thrips (FRANOC) are aspirated into each scintillation vial. The vials with the leaf discs and thrips are kept in an upright incubator at 25° C. and 50% relative humidity with a 14:10 light:dark photoperiod. Each treatment is replicated twice.
# Thrips mortality is assessed at 2 DAT (days after treatment), counting all thrips both dead and alive. [The average absolute mortality is calculated for each treatment.]
# [4] = system: Orchid thrips (Dichromothrips corbetti); experiment: Orchid thrips (Dichromothrips corbetti) floral-immersion test; settings: adult thrips, 72 hours after treatment, read-out: mortality in comparison with untreated controls
# Description: B.7. Orchid Thrips (Dichromothrips corbetti)
# Dichromothrips corbetti adults used for bioassay were obtained from a colony maintained continuously under laboratory conditions. For testing purposes, the test compound is diluted in a 1:1 mixture of acetone:water (vol:vol), plus Kinetic® HV at a rate of 0.01% v/v.
# Thrips potency of each compound was evaluated by using a floral-immersion technique. All petals of individual, intact orchid flowers were dipped into treatment solution and allowed to dry in Petri dishes. Treated petals were placed into individual re-sealable plastic along with about 20 adult thrips. All test arenas were held under continuous light and a temperature of about 28° C. for duration of the assay. After 3 days, the numbers of live thrips were counted on each petal. The percent mortality was recorded 72 hours after treatment.
# [5] = system: Diamond back moth (Plutella xylostella); experiment: Diamond back moth (Plutella xylostella) cabbage leaf dip test; settings: foliar, 3rd instar larvae, 72 hours after treatment, read-out: mortality in comparison with untreated controls
# Description: B.2. Diamond Back Moth (Plutella xylostella)
# The active compound is dissolved at the desired concentration in a mixture of 1:1 (vol:vol) distilled water:acetone. Surfactant (Alkamuls® EL 620) is added at a rate of 0.1% (vol/vol). The test solution is prepared at the day of use.
# Leaves of cabbage were dipped in test solution and air-dried. Treated leaves were placed in petri dish enlined with moist filter paper and inoculated with ten 3rd instar larvae. Mortality was recorded 72 hours after treatment. Feeding damages were also recorded using a scale of 0-100%.
# [6] = system: Silverleaf Whitefly (Bemisia argentifolih) (Adults); experiment: Silverleaf whitefly adults on sprayed cotton plants; settings: 300 ppm, 3 days after treatment
# Description: B.3 Silverleaf Whitefly (Bemisia argentifolih) (Adults)
# as §1, with “non-ionic” for “nonionic”
# Cotton plants at the cotyledon stage (one plant per pot) were sprayed by an automated electrostatic plant sprayer equipped with an atomizing spray nozzle. The plants were dried in the sprayer fume hood and then removed from the sprayer. Each pot was placed into a plastic cup and about 10 to 12 whitefly adults (approximately 3-5 days old) were introduced. The insects were collected using an aspirator and a nontoxic Tygon® tubing connected to a barrier pipette tip. The tip, containing the collected insects, was then gently inserted into the soil containing the treated plant, allowing insects to crawl out of the tip to reach the foliage for feeding. Cups were covered with a reusable screened lid. […] Mortality was assessed 3 days after treatment, compared to untreated control plants.
# [7] = system: Yellow fever mosquito (Aedes aegypti); experiment: whole plant or invertebrate; settings: 48 h, freshly hatched larvae in tap water, assessed after 2 days, read-out: larval mortality in comparison with untreated controls
# Description: B.6. Yellow Fever Mosquito (Aedes aegypti)
# For evaluating control of yellow fever mosquito (Aedes aegypti) the test unit consisted of 96-well-microtiter plates containing 200 μl of tap water per well and 5-15 freshly hatched A. aegypti larvae. The active compounds were formulated using a solution containing 75% (v/v) water and 25% (v/v) DMSO. Different concentrations of formulated compounds or mixtures were sprayed onto the insect diet at 2.5 μl, using a custom built micro atomizer, at two replications.
# After application, microtiter plates were incubated at 28+1° C., 80+5% RH for 2 days. Larval mortality was then visually assessed.
smiles,measurement,setting,value
"CC(C)c1ccccc1/N=C1\SCC(=O)N1/N=C/c1ccc(-c2cc(NC(=O)c3ccc(OC(F)(F)F)cc3)ncn2)cc1 [Example C-12, N-[6-[4-[(E)-[(2Z)-2-(2-isopropylphenyl)imino-4-oxo-thiazolidin-3-yl]iminomethyl]phenyl]pyrimidin-4-yl]-4-(trifluoromethoxy)benzamide]",mortality at 500 ppm,[1],> 75%
same,mortality at 2500 ppm,[2],> 75%
same,mortality at 300 ppm,[3],> 75%
same,mortality at 500 ppm,[4],> 75%
same,mortality at 500 ppm,[5],> 75%
"CO[C@@H]1[C@@H](OC)[C@H](C)O[C@@H](O/N=C/c2ccc(-c3cc(NC(=O)c4ccc(OC(F)(F)F)cc4)ncn3)cc2)[C@@H]1OC [Example C-13, 4-(trifluoromethoxy)-N-[6-[4-[(E)-[(2S,3R,4R,5S,6S)-3,4,5-trimethoxy-6-methyl-tetrahydropyran-2-yl]oxyiminomethyl]phenyl]pyrimidin-4-yl]benzamide]",mortality at 2500 ppm,[2],> 75%
CC(C)c1ccccc1NC(=S)NN=Cc1ccc(-c2cc(C(=N)Nc3ccc(OC(F)(F)F)cc3)ncn2)cc1 [Example C-25],mortality in comparison with untreated controls,[6],over 75%
"Cc1ccc(C(C)C)c(N2C(=O)CS/C2=N\N=C\c2ccc(-c3nccc(NC(=O)c4ccc(C(F)(F)F)cc4)n3)cc2)c1 [Example C-5, N-[2-[4-[(E)-[(Z)-[3-(2-isopropyl-5-methyl-phenyl)-4-oxo-thiazolidin-2-ylidene]hydrazono]methyl]phenyl]pyrimidin-4-yl]-4-(trifluoromethyl)benzamide]",mortality at 2500 ppm,[7],> 75%
same,mortality at 2500 ppm,[2],> 75%
